pIC50: −log10 of the molar value. Converted amounts (≈) assume the structure as drawn. “And” between values parts separate entries of the source, which are not always exact repeats. Equal entries are not always repeated. Where two headings read alike, the source gives them in different places.
Assays:
[1] = test system: MDA-MB-453 cells; assay: Combination of agents, MTT assay, combination index
Method: Calculating the Combination Index. To determine the Combination Index (CI), 1) the Na^+-K^+-ATPase enzyme or 2) MDA-MB-453 cells were exposed to all combinations of 3, 4 or 5 concentrations of each of the agents tested and a solvent control. […] The results of the enzymatic assay of ATPase or MTT assay were analyzed for possible synergistic effects using the median effect principle. Variable ratios of drugs were employed and mutually exclusive equations were assumed.
Calculating the Combination Index.
The simvastatin was obtained from Sigma of St. Louis, Mo. The concentrations tested in the present example were 0, 0.2, 2, 5, and 20 μg/ml actein and 0, 0.8, 4, 20 and 40 μg/ml simvastatin.

[2] = test system: MDA-MB-453 cells; assay: MTT assay, 96 hours; type: cell-based, human; conditions: for IC50: Homo sapiens, MTT, 96 h
Method: (§1) For the Coulter counter assay, cells were seeded at 2×10^4 cells per well in 24 well plates (0.875 cm diameter) as described previously. […] Control and treated cells were compared using the student's t-test (p<0.05). For cell cycle analysis the cells were plated (3×10^5) onto 6 cm dishes and allowed to attach for 24 hours. […] After 24 hours the cells were analyzed by DNA flow cytometry, as described previously.

[3] = test system: MDA-MB-453 cells; assay: Cell-cycle analysis by DNA flow cytometry; type: cell-based, human; conditions: for Sub G1 (%) / G1 (%) / G2/M (%) / S (%): 48 hrs; for G1 / G2 / S / SubG1: 24 hours
Method: Synchrony: To synchronize the cells, 3×10^5 cells were plated onto 10 cm dishes and grown for 2 days in DMEM supplemented with 10% fetal bovine serum.
After incubation for 1-3 days, the supernatant was collected, and the cells were trypsinized, collected, and washed with phosphate buffered saline (PBS) containing 5% FBS. Cell pellets were re-suspended in 1 ml of PBS plus 5% FBS. Thereafter, 5 ml of 70% ethanol were added drop-wise, while vortexing the tube, and the mixture was stored at 4° C. Cells were centrifuged, washed with PBS plus 5% FBS, and re-suspended in 400 μl of propidium iodide (0.1 mg/ml) (Sigma Chemical Co.). 400 μl (2 mg/ml) of RNase (Sigma Chemical Co.) were added, and the cells were incubated in the dark at room temperature for 30 min.

[4] = test system: T1, Na^+-K^+-ATPase; assay: Combination of agents on Na^+-K^+-ATPase activity, combination index; type: biochemical
T1 construct: Combination index; actein (μM); Combination index; actein; ATPase activity; other: actein 0.8 μM alone; other: digitox

[5] = test system: MDA-MB-453 cells; assay: Cell proliferation, cell count (Coulter Counter); conditions: Homo sapiens, MDA-MB-453, 96 h
Method: For the cell count assay, breast cancer cells were seeded, in triplicate, at 2×10^4 cells per well, in 24- or 96-well plates.
as §1

[6] = test system: HCC1569 cells; assay: MTT assay, 96 hours; type: cell-based; conditions: Homo sapiens
[7] = test system: MCF7 cells; assay: MTT assay, 96 hours; type: cell-based, human; conditions: for pIC50: unit inferred
[8] = test system: MDA-MB-453 cells; assay: Western-blot analysis; type: cell-based, human; conditions: for IκB band intensity relative to β-actin / IκκB band intensity relative to β-actin / PPAR-γ band intensity relative to β-actin / p-Her2 level (WB) / cyclin D1 band intensity relative to β-actin: MDA-MB-453; for increase in level of p-Src: serum-starved MDA-MB-453, 80 μg/ml, 30 min
Method: Cells were treated for increasing times with approximately the IC50 concentration, or twice the IC50 concentration, of actein. The cells were harvested, washed with PBS, and sonicated in extraction buffer according to the procedure of Han et al. (Han et al., Stable overexpression of cyclin D1 in a human mammary epithelial cell line prolongs the S-phase, and inhibits growth. Oncogene, 10:953-61, 1995). The lysates were subjected to electrophoresis on a 10% or 12.5% SDS-polyacrylamide gel, and then transferred to a polyvinylidene difluoride (PVDF) membrane. The membrane was blocked with milk protein, and incubated with a solution containing the primary antibody against the following: cyclin D1 (Upstate Biotechnology, Lake Placid, N.Y.), p21^cip1 (Oncogene Research Products, Darmstadt, Germany), ppRb (ser 780, Medical and Biological Laboratories, Nagoya, Japan), cdk4 (Upstate Biotechnology, Lake Placid, N.Y.), EGFR (clone-74, Transduction Laboratories, Lexington, Ky.), p-EGFR (phospho (Y1173)-EGFR) (Cell Signaling, Beverly, Mass.), actin (Sigma, St. Louis, Mo.), Her-2/neu (Cell Signaling, Beverly, Mass.), or phospho-(Y1248)-Her-2/neu (Cell Signaling, Beverly, Mass.)), IκB (Sant Cruz Biotechnolgy, Santa Cruz, Calif.), IκκB (Sigma, St. Louis, Mo.) and PPARγ (Santa Cruz biotechnology, Santa Cruz, Calif.) (Masuda et al., Epigallocatechin-3-gallate inhibits activation of HER-2/neu and downstream signaling pathways in human head and neck and breast carcinoma cells. Clin. Cancer Res., 9: 3486-91, 2003). The membrane was washed, and incubated with horseradish peroxidase conjugated secondary antibody.
Protein bands were visualized with the ECL-enhanced chemiluminescence system, according to the manufacturer's directions (Amersham Pharmacia Biotech) (Sgambato et al., Overexpression of p27 (Kip1) inhibits the growth of both normal and transformed human mammary epithelial cells. Cancer Research, 58:3448-54, 1998). The staining intensities of the visualized blots were quantified using NIH image software. For each protein, the relative band intensities were determined by comparing treated samples with untreated controls. These values were then normalized, using β-actin as an internal control.
Western blot analysis. […] To assay activation of p-Src, cells were allowed to attach for 24 h, incubated in media without serum for 24 h; the medium was replaced with media without serum with DMSO, actein or digtioxin.
Western blot analysis was performed as previously described. […] The membrane was incubated with the primary antibodies, cyclin D1 (Santa Cruz Biotechnology; Santa Cruz, Calif.), p-Src, Akt, p-Akt, ERK2 or p-Erk2 (Cell signaling, Beverly, Mass.); β-actin was used as a loading control.
Western blot analysis was performed as described previously.

[9] = target: T1, Na^+-K^+-ATPase; assay: Enzymatic assay of adenosine 5′-triphosphatase; type: biochemical; conditions: read-out: IC50 (50% inhibition of Na^+-K^+-ATPase activity); purified enzyme, in vitro
Method: Enzymatic assay of adenosine 5′-triphosphatase. The enzymatic assay of ATPase (adenosine 5′-triphosphatase, EC 3.6.1.3) followed the Sigma Prod. […] [P] was determined by the Taussky-Shorr method.

[10] = Homo sapiens, MDA-MB-453, read-out: percent viable cells

SMILES: CC(=O)O[C@@H]1C[C@@]23C[C@@]24CC[C@H](O[C@@H]2OC[C@@H](O)[C@H](O)[C@H]2O)C(C)(C)[C@@H]4CC[C@H]3[C@]2(C)C[C@@H]3O[C@]4(C[C@@H](C)[C@@H]3[C@@]12C)O[C@H](O)[C@@]1(C)O[C@@H]41 [actein]
- viability at 0.2 µg/mL [1, 10]: 97.8%
- viability at 2 µg/mL [1, 10]: 75.8%
- viability at 5 µg/mL [1, 10]: 70.9%
- cell survival ([1]; actein 2 ug/ml alone (simvastatin study)): 68.2%
- amplification: IC50 ATPase inhibition / IC50 growth inhibition [2]: about 2 fold
- IC50 ([2]; read-out: IC50): ~5 µg/mL and ~7.4 µM
- Sub G1 (%) ([3]; (a) DMEM + […] FBS 48 hrs, then actein 20 μg/ml): 1.8%
- G1 (%) ([3]; (a) […] FBS, actein 20 μg/ml): 79.6%
- G2/M (%) ([3]; (a) […] FBS, actein 20 μg/ml): 10.0%
- S (%) ([3]; (a) […] FBS, actein 20 μg/ml): 8.5%
- G1 (%) ([3]; (a) […] FBS, actein 40 μg/ml): 83.8%
- G2/M (%) ([3]; (a) […] FBS, actein 40 μg/ml): 9.0%
- S (%) ([3]; (a) […] FBS, actein 40 μg/ml): 4.9%
- Sub G1 (%) ([3]; (a) […] FBS, actein 40 μg/ml): 2.2%
- G1 (%) ([3]; (b) Actein 2 μg/mL): 69.8%
- G2/M (%) ([3]; (b) Actein 2 μg/mL): 18.6%
- S (%) ([3]; (b) Actein 2 μg/mL): 11.0%
- Sub G1 (%) ([3]; (b) Actein 2 μg/mL): 0.9%
- G1 (%) ([3]; (b) Actein 20 μg/mL): 70.8%
- G2/M (%) ([3]; (b) Actein 20 μg/mL): 18.2%
- S (%) ([3]; (b) Actein 20 μg/mL): 9.7%
- Sub G1 (%) ([3]; (b) Actein 20 μg/mL): 1.6%
- G1 (%) ([3]; (c) Actein 20 μg/mL): 59.2%
- G2/M (%) ([3]; (c) Actein 20 μg/mL): 29.5%
- S (%) ([3]; (c) Actein 20 μg/mL): 8.6%
- Sub G1 (%) ([3]; (c) Actein 20 μg/mL): 2.7%
- ATPase activity ([4]; actein 0.8 μM alone): 95.1%
- IC50 [5]: ~8 µg/mL (≈ 11.8 µM)
- pIC50 ([6]; unit inferred, read-out: IC50): 4.60
- pIC50 ([7]; Homo sapiens, MCF7, read-out: IC50): 4.68
- IκB band intensity relative to β-actin ([8]; 3 h, 20 μg/ml): 1.2 fold
- IκκB band intensity relative to β-actin ([8]; 3 h, 20 μg/ml): 1.79 fold
- PPAR-γ band intensity relative to β-actin ([8]; 3 h, 20 μg/ml): 1.39 fold
- p-Her2 level (WB) ([8]; 3 h, 20 μg/ml): 0.71 fold
- IκB band intensity relative to β-actin ([8]; 3 h, 40 μg/ml): 1.09 fold
- IκκB band intensity relative to β-actin ([8]; 3 h, 40 μg/ml): 1.78 fold
- PPAR-γ band intensity relative to β-actin ([8]; 3 h, 40 μg/ml): 0.93 fold and 0.92 fold
- cyclin D1 band intensity relative to β-actin ([8]; 3 h, 40 μg/ml): 0.93 fold
- p-Her2 level (WB) ([8]; 3 h, 40 μg/ml): 0.86 fold
- IκκB band intensity relative to β-actin ([8]; 10 h, 20 μg/ml): 0.48 fold
- IκκB band intensity relative to β-actin ([8]; 10 h, 40 μg/ml): 0.59 fold
- IκB band intensity relative to β-actin ([8]; 24 h, 20 μg/ml): 0.81 fold
- IκκB band intensity relative to β-actin ([8]; 24 h, 20 μg/ml): 1.06 fold
- PPAR-γ band intensity relative to β-actin ([8]; 24 h, 20 μg/ml): 1.3 fold
- cyclin D1 band intensity relative to β-actin ([8]; 24 h, 20 μg/ml): 1.3 fold
- p-Her2 level (WB) ([8]; 24 h, 20 μg/ml): 0.81 fold
- IκB band intensity relative to β-actin ([8]; 24 h, 40 μg/ml): 0.53 fold
- IκκB band intensity relative to β-actin ([8]; 24 h, 40 μg/ml): 0.95 fold
- PPAR-γ band intensity relative to β-actin ([8]; 24 h, 40 μg/ml): 0.67 fold
- cyclin D1 band intensity relative to β-actin ([8]; 24 h, 40 μg/ml): 0.44 fold
- p-Her2 level (WB) ([8]; 24 h, 40 μg/ml): 0.53 fold
- increase in level of p-Src [8]: 1.5 fold
- pIC50 [9]: 4.95 and 4.80

SMILES: C[C@H]1O[C@@H](O[C@H]2[C@@H](O)C[C@H](O[C@H]3[C@@H](O)C[C@H](O[C@H]4CC[C@@]5(C)[C@H](CC[C@@H]6[C@@H]5CC[C@]5(C)[C@@H](C7=CC(=O)OC7)CC[C@]65O)C4)O[C@@H]3C)O[C@@H]2C)C[C@H](O)[C@@H]1O [digitoxin]
- viability at 0.01 µg/mL ([1]; Homo sapiens, MDA-MB-453, read-out: percent viable cells, digitoxin 0.01 μg/ml alone (actein study)): 62.8%
- viability at 0.01 µg/mL ([1]; Homo sapiens, MDA-MB-453, read-out: percent viable cells, digitoxin 0.01 μg/ml alone (paclitaxel study)): 73%
- IC50 ([2]; MDA-MB-453, 96 h): ~0.025 µg/mL and ~33 nM
- G1 ([3]; digitoxin 0.2 μg/mL): 46.50 (1.98) %
- G2 ([3]; digitoxin 0.2 μg/mL): 19.05 (0.07) %
- S ([3]; digitoxin 0.2 μg/mL): 27.65 (0.64) %
- SubG1 ([3]; digitoxin 0.2 μg/mL, SD in parentheses): 6.77 (1.06) %
- G1 ([3]; digitoxin 2.0 μg/mL): 41.90 (2.26) %
- G2 ([3]; digitoxin 2.0 μg/mL): 32.10 (1.27) %
- S ([3]; digitoxin 2.0 μg/mL): 17.80 (0.42) %
- SubG1 ([3]; digitoxin 2.0 μg/mL): 5.78 (1.02) %
- ATPase activity ([4]; digitoxin 0.2 μM alone): 87.8%
- ATPase activity ([4]; digitoxin 0.8 μM alone): 53.6%
- IC50 [5]: 0.04 µg/mL and 50 nM
- pIC50 [6]: 6.92
- IC50 ([7]; Homo sapiens, MCF7, MCF7): 0.2 µg/mL
- pIC50 ([7]; Homo sapiens, MCF7, MCF7): 6.58
- pIC50 ([7]; MCF7): 6.59
- increase in level of p-Src [8]: 1.5 fold
- pIC50 [9]: 6.10

From US20120208776A1 (priority 2002, published 2012)
